Source: patent US6395786B1, “Sleep inducing agent” (Taisho Pharmaceutical Co., Ltd., priority 1998, dated 2002)

System: male rhesus monkeys
Test: Sleep-inducing test by cisternal administration (videotape sleep score)
Format: in vivo
Conditions: 10 μg/monkey, 45 minutes after the administration, FIG. 2
Description: [Sleep-inducing Test by Cisternal Administration]
Three male rhesus monkeys weighing 3.6-4.4 kg were individually placed in cages, and the behaviors of the animals were recorded by videotape for an hour before administration of the drug and for 5 hours after administration of the drug. Compound 32 and prostaglandin D2 methyl ester (PGD2) were each dissolved in saline solution and sterilized through a Millipore filter. The drugs were infused cisternally to the monkeys anesthetized with isohalothane inhalation. The doses were 1 μg and 10 μg/0.1 ml/monkey. The same doses of the vehicle were infused cisternally to give a control group. The test was carried out according to the following test schedule.
Week 1: Group treated with vehicle
Week 2: Group treated with 1 μg of Compound 32/monkey
Week 3: Group treated with 10 μg of Compound 32/monkey
Week 4: Group treated with 10 μg of PGD2/monkey
To determine the sleep, the period for which the monkey closed both eyes was measured at intervals of 15 minutes by playing back the recorded videotape, and the results were scored according to the following scales.

SMILES: CCCCC[C@H](O)/C=C/[C@H]1C(=O)C[C@H](O)[C@@H]1C/C=C\CCCC(=O)OC [prostaglandin D2 methyl ester]
- sleep action observed: transient sleep action
